# According to patent publication US20100129933A1, “METHOD FOR DETECTING THE BINDING BETWEEN MDM2 AND THE PROTEASOME” (Forschungszentrum Karlsruhe GmbH, priority 2007, published 2010):
# Peptide text beside a SMILES is read from it. * marks the point of attachment. Cbz = O=C(OCc1ccccc1)*
# Assays:
# [1] = target: T1, HDM2 (Homo sapiens, UniProt Q00987); test: Limited proteolysis of GST-HDM2 by trypsin; format: binding; conditions: 10 μM compound, 40 ng trypsin, 15 min on ice
# T1 construct: made in house; host or cells: bacteria (pGEX-4T-2 vector)
# T1 sequence (Q00987 whole entry): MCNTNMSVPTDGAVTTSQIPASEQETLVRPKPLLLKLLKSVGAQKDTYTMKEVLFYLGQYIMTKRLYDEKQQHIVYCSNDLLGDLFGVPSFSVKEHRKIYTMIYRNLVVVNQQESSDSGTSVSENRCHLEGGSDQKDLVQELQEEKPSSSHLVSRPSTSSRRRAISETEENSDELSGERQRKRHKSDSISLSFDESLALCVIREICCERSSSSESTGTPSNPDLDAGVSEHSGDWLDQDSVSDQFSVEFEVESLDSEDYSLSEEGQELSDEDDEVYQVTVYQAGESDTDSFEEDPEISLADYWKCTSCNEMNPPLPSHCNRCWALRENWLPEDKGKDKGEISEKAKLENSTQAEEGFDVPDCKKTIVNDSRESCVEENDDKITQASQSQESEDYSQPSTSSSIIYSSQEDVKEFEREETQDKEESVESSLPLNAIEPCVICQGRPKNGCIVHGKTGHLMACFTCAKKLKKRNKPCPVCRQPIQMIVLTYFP
# Procedure: GST-HDM2, GST-HDMX were incubated with 10 μM of JNJ-#1 or with DMSO for control. Then 40 ng trypsin were added and the mixture was incubated for 15 min on ice. […] HDM2 was detected by incubating the membrane with the HDM2 antibodies 4B2, SMP14 and C18. Western blots were developed by ECL.
# 40 ng of trypsin were added and the mixture was incubated for 15 min on ice. Samples were separated by 10% SDS-PAGE gel and blotted onto Immobilon P membrane. The membrane was incubated with the anti-HDM2 antibody 4B2. The Western blot was developed by ECL.
# Then 40 ng trypsin was added and the mixture was incubated for 15 min on ice. Proteolysis was stopped by addition of 2× sample buffer. Samples were loaded onto an 12 or 15% SDS-PAGE gel and HDM2 or HDMX were detected by Western blotting.
# [2] = system: p53 ubiquitination; test: Cellular p53 ubiquitylation assay in U2OS cells; format: cell-based; conditions: His-tagged ubiquitin, 10 μM, 2 hours
# Procedure: After incubation ubiquitylated proteins were purified by adsorption to Ni2+-agarose and separated by SDS-PAGE. P53 was detected by Western blotting. (TCL: Total cell lysate)
# To test this option, we performed an cellular ubiquitylation assay in the presence of the compound.
SMILES,proteolysis of GST-HDM2 by trypsin [1],ubiquitylation of p53 [2]
CC(C)C[C@@H](C=O)NC(=O)[C@H](CC(C)C)NC(=O)[C@H](CC(C)C)NC(=O)OCc1ccccc1 [MG132] (Cbz-Leu-Leu-Leu-aldehyde),had no affect,
COc1ccc(C2=N[C@@H](c3ccc(Cl)cc3)[C@@H](c3ccc(Cl)cc3)N2C(=O)N2CCNC(=O)C2)c(OC(C)C)c1 [Nutlin-3],,strongly reduced
